Experiments:
RBL-2H3 mast cells [1] = assay: IgE/antigen induced calcium mobilization in mast cells (fluo-3 imaging); type: cell-based, rat; details: 30 μM, 20 minutes prior to stimulation with 20 ng/ml DNP-BSA; FIG. 2A
Procedure: To study the effects of compound D-58, RBL-2H3 cells were incubated with compound D-58 at the indicated concentrations or vehicle for 1 hour prior to antigen challenge. Mast cell degranulation (β-hexosaminidase release, % of total) was assessed by measuring the β-hexosaminidase levels in cell free supernatants and Triton X-100 solubilized pellets using the formula: β-hexosaminidase release, % of total=100×(β-hexosaminidase level in supernatant/β-hexosaminidase level in supernatant+solubilized pellet). LTC4 levels in cell free supernatants of mast cells were estimated using standard procedures (ref 24). […]
The results are shown in FIGS. 2A-B. IgE/antigen stimulation of RBL-2H3 mast cells activates a cascade of signal transduction events, which includes tyrosine phosphorylation of several proteins and SYK/BTK-mediated activation of phospholipase C, which generates second messengers inositol 1,4,5-triphosphate (IP3) and 1,2-diacylglycerol (DAG) (ref 7). […] IgE sensitized and Ca^2+ indicator fluo-3/AM loaded RBL-2H3 cells were stimulated with 20 ng/ml antigen (DNP-BSA) in presence of 1 mM calcium chloride and the fluorescence intensity, reflecting the calcium ion concentration was measured. […]
The fluorescent Ca^2+ indicator, fluo-3/AM (Molecular Probes) was used to detect Ca^2+ mobilizations in individual cells (ref 25). […] The background fluorescence was subtracted from each image.

RBL-2H3 mast cells [2] = assay: Ionomycin or thapsigargin induced calcium mobilization in mast cells; type: cell-based, rat; details: 30 μM compound for 20 minutes, FIG. 2B
Text: An alternative mechanism for the cells to maintain low cytosolic calcium levels is the activation of cell plasma membrane calcium ATPase or calcium pump (refs 32 and 33). Therefore, the effect of compound D-58 on ionophore and thapsigargin induced calcium mobilization also was studied. Ionomycin takes extracellular calcium inside the cells, and bypasses most of the signal transduction events, whereas thapsigargin inhibits endoplasmic reticulum calcium pump, and selectively depletes IP3-sensitive storage resulting in an increase in the cytosolic calcium levels (ref 33). In summary, IgE-sensitized RBL-2H3 cells were treated with 30 μM compound D-58 for 20 minutes and challenged with DNP-BSA (20 ng/ml). The cells were then stimulated with either ionomycin (1 μM), or thapsigargin (2 μM). The arrows indicate the time points at which the cells were exposed to the agents.
The fluorescent Ca^2+ indicator, fluo-3/AM (Molecular Probes) was used to detect Ca^2+ mobilizations in individual cells (ref 25). Briefly, the IgE sensitized monolayers of mast cells were incubated with 1 μM fluo-3/AM at 37° C. for 30 minutes. After incubation the cells were washed twice and 1 ml PIPES buffer was added to the wells. […] The image acquisition and fluorescence intensity analysis were controlled by the software MetaFluor (Universal Imaging Co.). The background fluorescence was subtracted from each image.

SYK = target: T1, SYK (Homo sapiens, UniProt P43405); assay: SYK tyrosine kinase assay; type: biochemical; details: 1 hour exposure
T1 construct: made in house; host or cells: Sf21 insect cells (baculovirus)
Procedure: Sf21 (IPLB-SF21-AE) cells derived from the ovarian tissue of the fall armyworm Spodotera frugiperda, were obtained from Invitrogen and maintained at 26-28° C. in Grace's insect cell medium supplemented with 10% FBS and 1.0% antibiotic/antimycotic (GIBCO-BRL). Stock cells were maintained in suspension at 0.2-1.6×10^6/ml in 600 ml total culture volume in 1 L Bellco spinner flasks at 60-90 rpm. Cell viability was maintained at 95-100% as determined by trypan blue dye exclusion.
Sf21 cells were infected with a baculovirus expression vector for BTK or SYK, as previously described (refs 18 and 19). […]
Following electrophoresis, kinase gels were dried onto Whatman 3M filter paper and subjected to phosphoimaging on a Molecular Imager (Bio-Rad, Hercules, Calif.) as well as autoradiography on film. […] For each drug concentration, a BTK or SYK kinase activity index was determined by comparing the ratios of the kinase activity in phosphorimager units (PIU) and density of the protein bands in densitometric scanning units (DSU) to those of the baseline sample and using the formula: Activity Index=[PIU of kinase band/DSU of BTK/SYK protein band]test sample: [PIU of kinase band/DSU of BTK/SYK protein band]baseline control sample.

**Q.** With COc1ccc(CC(=O)c2c(O)cc(O)cc2O)cc1 [Compound D-58] as the compound, how does the “IgE/antigen induced calcium response” value (RBL-2H3 mast cells [1]) read?
**A.** abrogation of calcium mobilization

**Q.** And the “calcium response induced by ionomycin” value (RBL-2H3 mast cells [2]; 1 μM ionomycin)?
**A.** did not inhibit

**Q.** What about the “calcium response induced by thapsigargin” value (RBL-2H3 mast cells [2]; 2 μM thapsigargin) of the same compound?
**A.** did not inhibit

**Q.** And the IC50 (SYK; first experiment, FIG. 1B)?
**A.** 36.9 µM

**Q.** And the IC50 (SYK; second experiment, FIG. 1C)?
**A.** < 10 µM
